Measurements taken from patent US20200147058A1, “KRAS INHIBITOR FOR USE IN TREATING CANCER” (Friedrich-Alexander-Universitat Erlangen-Numberg, priority 2016, published 2020).

Key:
[1] = tested on: Mel Im cells; assay: FACS analysis of apoptosis (Annexin / propidium iodide); format: cell-based, human
Excerpt: (§1) FIGS. 4A through 4H depict that small Molecule KRAS Inhibition Reduces Proliferation and Induces Apoptosis in Melanoma. FIGS. 4A and 4B show proliferation (slope of cell index) of Mel Juso (FIG. 4A) and Mel Im (FIG. 4B) cells treated with DMSO and different concentrations of the KRAS small molecule inhibitor Deltarasin (DR). The cell index as dimensionless parameter for cell proliferative ability was used to determine the half maximal inhibitory concentration (IC50, small graphs) of DR. […] FIG. 4D illustrates exemplary images of different melanoma cell lines (Mel Im, Mel Juso and Mel Ei) treated with 5 μM DR or 5 μM DMSO, respectively, for 24 hours. FIGS. 4E and 4F show images of fibroblast cell lines derived from two different donors (F1, F2) and melanocytes (NHEM) treated DR (20 μM, 48 hours) or DMSO (FIG. 4E), and lactate dehydrogenase (LDH) quantification (FIG. 4F) in cell supernatants (optic density, OD) of NHEM after treatment with low dose DMSO, DR (5 μM), and DR (10 μM), respectively.
(§2) FIGS. 5A through 5D show time-dependent measurement of colony diameters (exemplary data in top panels) in three-dimensional, anchorage-independent “colony-forming” assays (FIGS. 5A and 5B: Mel Im, FIGS. 5C and 5D: Mel Juso). Exemplary Images (middle) and corresponding quantification of colony diameters (bottom panels, summarized data of n=3 experiments at day 19 after seeding) are also depicted. Treatments were performed in four different groups (10 μM DMSO, 5 μM Deltarasin=DR, M PLX-4032=PLX (vemurafenib), or combination of 10 μM PLX+[…]). Effects on i) colony formation (FIGS. 5A and 5C, treatment at day 1) and ii) proliferation of pre-formed colonies (FIGS. 5B and 5D, treatment at day 7 and 13) were analyzed. […] FIG. 5F show images of PLX-primary resistant Mel Juso cells treated with DMSO, DR (5 μM), high dose PLX (20 μM) and a combination of 5 μM DR+10 μM PLX for 24 hours. […] Cells were treated for 5 hours with DMSO, 5 μM Deltarasin (DR), 10 μM PLX, or a combination of 10 μM PLX and 5 μM DR. According to exemplary images for Annexin and propidium iodide (PI) staining are depicted for Mel Im. (FIG. 5H) Mel Im and Mel Juso were transfected with control si-RNA (si-CTR) or with si-KRAS (si-KR). Two subgroups (blue and red) were additionally treated with 10 μM PLX (Vemurafenib) for 24 hours, with subsequent flow cytometric quantification of tumor cell apoptosis according to FIG. 5G. Exemplary images for Annexin and propidium iodide (PI) staining are depicted for Mel Im.

[2] = tested on: Mel Juso cells; assay: as above; format: cell-based, human
Excerpt: as §1, §2

[3] = tested on: Mel Im cells; assay: real-time cell proliferation (slope of cell index); format: cell-based, human; conditions: different concentrations of DR vs DMSO
Excerpt: as §1

[4] = tested on: Mel Juso cells; assay: real-time cell proliferation (slope of cell index); format: cell-based, human; conditions: different concentrations of DR vs DMSO
Excerpt: as §1

[5] = tested on: resistant cell clones (SkMel28-R, 451Lu-R); assay: real-time cell proliferation of BRAFi-resistant melanoma cells; format: cell-based, human; conditions: in combination with 5 or 10 μM PLX
Procedure: FIGS. 6A through 6H depict that KRASi Prevents Emergence of Resistance and KRAS Expression is Regulated Dynamically in Acquired Resistance to BRAFi. […] Asterisks indicate significant differences (p<0.05) as compared to according control (0 μM PLX). FIGS. 6E and 6F are exemplary Western blot images (FIG. 6E) depicting immunostaining of AKT, pAKT, ERK, pERK, and KRAS. Densitometric values (DM) are also shown, representing relative quantifications. Resistant cell lines 451Lu-R and SkMel28-R were treated with 0, 5, or 10 μM PLX for 8 hours, and according summarized quantification of KRAS protein expression (n=3, FIG. 6F).
FIGS. 7A through 7I present KRAS Inhibition Re-sensitizes BRAF Inhibitor Resistant Cells for Inhibition of Proliferation and Induction of Apoptosis. […] show real-time cell proliferation (exemplary proliferation curve depicted in FIG. 6A, summarized slopes of proliferation curves depicted in FIG. 6B) of PLX-resistant cells treated with si-KRAS (KR) or control si-RNA (CTR), respectively, in combination with 5 or 10 μM PLX. FIGS. 7C and 7D show real-time cell proliferation (exemplary proliferation curve depicted in […], summarized slopes of proliferation curves depicted in FIG. 7D) of PLX-resistant cells treated with Deltarasin (DR) or DMSO, respectively, in combination with 5 or 10 μM PLX, according to FIGS. 7A and 7B. […]

[6] = tested on: Mel Im cells; assay: long-term treatment, emergence of surviving tumor cells and drug resistance; format: cell-based, human; conditions: 28 days, IC50 or 2×IC50
Excerpt: as §1
FIGS. 6A through 6H depict that KRASi Prevents Emergence of Resistance and KRAS Expression is Regulated Dynamically in Acquired Resistance to BRAFi. […] Asterisks indicate significant differences (p<0.05) as compared to according control (0 μM PLX). […] Densitometric values (DM) are also shown, representing relative quantifications. […]

[7] = tested on: Htz19 melanoma cells; assay: FACS analysis of apoptosis; format: cell-based, human; conditions: 5 hours, 5 μM DR
[8] = tested on: PLC; conditions: DR doses
[9] = tested on: melanoma cells; assay: lactate dehydrogenase (LDH) quantification in cell supernatants after low dose DR; format: cell-based, human; conditions: low dose DR (2 μM), 24 hours
[10] = tested on: pancreatic adenocarcinoma cells; conditions: Zimmermann et al., 2013; cited from earlier work
[11] = tested on: murine hepatoma cell line Hepa129; assay: apoptosis by FACS analysis; format: cell-based; conditions: 24 hours
Procedure: FIGS. 12A through 12C depict Murine Hepatoma Cells (Hepta129) Sensitive for Small Molecule KRAS Inhibition in vitro and in vivo. […] is exemplary images (4-fold) depicting murine Hepatoma Cells (Hepa129) treated for 24 hours with Deltarasin (DR) and/or Sorafenib (SF) using different concentration of inhibitors.

[12] = 5 hours, 5 μM DR, 10 μM PLX or combination

Q: With `c1ccc(Cn2c(-c3ccc(OC[C@H](C4CCNCC4)n4c(-c5ccccc5)nc5ccccc54)cc3)nc3ccccc32)cc1` [Deltarasin, (S)-1-Benzyl-2-(4-(2-(2-phenyl-1H-benzo[d]imidazol-1-yl)-2-(piperidin-4-yl)ethoxy)phenyl)-1H-benzo[d]imidazole] as the molecule, how does the “induction of apoptosis (FACS)” value ([1]; 5 μM for 8, 16 and 24 hours) read?
A: The value was “marked time-dependent induction of apoptosis”.

Q: And the “apoptosis (FACS), short treatment” value [1, 12]?
A: The value was “only slightly induced apoptosis”.

Q: What about the “induction of apoptosis (FACS)” value ([2]; 5 μM for 8, 16 and 24 hours) of the same molecule?
A: The value was “marked time-dependent induction of apoptosis”.

Q: And the “apoptosis (FACS), short treatment” value [2, 12]?
A: Its value is “did not induce apoptosis”.

Q: And the “inhibition of proliferation (slope of cell index)” value [3]?
A: The value was “dose-dependent inhibition of proliferation”.

Q: What about the “inhibition of proliferation (slope of cell index)” value [4] of the same molecule?
A: The value was “dose-dependent inhibition of proliferation”.

Q: What about the “proliferation of PLX-treated, BRAFi-resistant melanoma cells” value [5] of the same molecule?
A: The value was “dose dependent inhibition of proliferation”.

Q: What about the “surviving tumor cells after long-term treatment” value [6] of the same molecule?
A: The value was “no surviving tumor cells were detected”.

Q: What about the “apoptosis (FACS), short treatment” value [7] of the same molecule?
A: The value was “only slightly induced apoptosis”.

Q: And the inhibition of proliferation [8]?
A: Its inhibition of proliferation is “strong dose-dependent inhibition of proliferation”.

Q: And the “lactate dehydrogenase (LDH) amounts in cell supernatants” value [9]?
A: The value was “sufficient to increase lactate dehydrogenase (LDH) amounts”.

Q: And the “proliferation of pancreatic adenocarcinoma cells” value [10]?
A: The value was “reduce proliferation”.

Q: And the apoptosis [11]?
A: The apoptosis was “marked effects”.
